Laboratory results as given in US12492208B2, “Crystal of pyrimidine compound” (TAIHO PHARMACEUTICAL CO., LTD., priority 2020, dated 2025).
Where two headings read alike, the source gives them in different places.

How the values were obtained:
brain metastatic cancer = details: clinical tests; cited from earlier work
[1] = non-clinical tests; substrates of p-gp or Bcrp; cited from earlier work
[2] = Dynamic vapor sorption (DVS) test; format: physicochemical; details: for hygroscopicity determination: from mass increase under 95% relative humidity; for Weight change rate, Adsorption / Weight change rate, Desorption: 25° C.
Procedure: Dynamic vapor sorption tests were conducted using a type II crystal of compound (I) with1 equivalent of fumaric acid, a free-form type II crystal of the same, a free-form type I crystal of the same, a type V crystal of the same with 1 equivalent of fumaric acid, and a crystal of the same with 1 equivalent of L-tartaric acid obtained in the Examples and Reference Examples.
The dynamic vapor sorption test was conducted for measurement according to the following conditions.
Approximately 10 mg of each sample was packed in a dedicated quartz holder, and the weight of the sample at each humidity was continuously measured and recorded under the following conditions.

[3] = Blood concentration measurement test; format: in vivo, female rats (Crl:CD (SD)); details: rat; for AUC(0-t): read-out: AUC0-6hr
Procedure: Blood concentration measurement tests were conducted for the type I crystal of compound (I), the type II crystal of compound (I), and the type II crystal of compound (I) with 1 equivalent of fumarate obtained in the Examples. Specifically, 0.5% HPMC containing 0.1N hydrochloric acid was used for the type I crystal of compound (I) and 0.5% HPMC was used for the type II crystal of compound (I) and the type II crystal of compound (I) with 1 equivalent of fumaric acid to convert each crystal into the compound (I) (free-form) in terms of molecular weight so as to prepare suspensions of 100 mg/10 mL and 300 mg/10 mL. These administration solutions were orally administered to female rats (Crl:CD (SD), Charles River Laboratories Japan, Inc.) kept under feeding conditions at a volume of 10 mL/kg body weight using an oral administration sonde. After administration, the rats were returned to the rat cage and their conditions were checked. Water and feeding were freely available in the cage. At 0.5, 1, 2, 4, and 6 hours after administration, the rats were anesthetized with isoflurane, and approximately 80 μL of blood was collected from the jugular vein using a heparin-coated syringe and an injection needle (25 G).
The collected blood was ice-cooled and plasma was separated by centrifugation. After the blood collection was completed, the rats were returned to the rat cage and the state after awakening of anesthesia was checked. After the final blood collection, the depth of isoflurane anesthesia was checked. Then, the limbs were fixed in a supine position with a small animal experiment holding apparatus, and the abdomen was opened such that each rat was euthanized by exsanguination through an incision in the abdominal aorta and vena cava.
AUC0-6 hr (Area under the blood concentration-time curve for 0 to 6 hours after administration calculated by the trapezoidal method), Cmax (maximum blood concentration), and Tmax (time to reach maximum blood concentration) were calculated from the concentration of the compound (I) in each plasma measured by the MRM method using LC/MS/MS and quantified from the calibration curve using Phoenix WinNonlin (v6.4.0,Certara USA, Inc.).

Solid stability test = format: physicochemical; details: for Amount of related substances after storage / Chemical purity after storage / change in the powder X-ray diffraction pattern / increase in related substances: 60° C. (closed system), 4 weeks
Procedure: The free-form type II crystals of the compound (I) and type II crystals thereof with 1 equivalent of fumaric acid obtained in the Examples and Comparative Examples were evaluated for solid stability after storage for 4 weeks. • Storage condition: 60° C. (closed system) • Storage period: 4 weeks • Stored amount: Approximately 30 mg • Storage container: Glass bottle
Approximately 1 mg of a sample was weighed, dissolved in approximately 1 mL of a liquid mixture of water/acetonitrile (1:1), and 5 μL of this solution was accurately measured. Changes in the amount of related substances (the amount of substances detected other compound (I)) were analyzed by HPLC by the following method. Hplc Analysis Method (Stability Test)
The amount of related substances in the sample solution was measured by HPLC analysis. Handling of the apparatuses, including data processing, was in accordance with the methods and procedures instructed for each apparatus. • Column: XSelect CSH C18 (4.6×150 mm, 3.5 μm) manufactured by Waters • UV detection: 246 nm • Column temperature: 40° C. • Flow rate: 1.0 mL/min • Sample cooler: 5° C. • Sample concentration: 1 mg/mL • Mobile phase A: Liquid mixture of 5 mmol/L ammonium formate buffer (pH 6.5)/acetonitrile (9:1) • Mobile phase B: Acetonitrile

[4] = female, Crl:CD (SD), plasma, po, 100 mg/kg
[5] = oral, 300 mg/kg, listed as Type I crystal of compound (I) (with hydrochloric acid)
[6] = oral, listed as type I crystal of compound (I) with hydrochloric acid
[7] = oral, 100 mg/kg, listed as Type II crystal of compound (I) with 1 equivalent of fumaric acid
[8] = oral, 300 mg/kg, listed as Type II crystal of compound (I) with 1 equivalent of fumaric acid
[9] = listed as Type II crystal with 1 equivalent of fumaric acid

hygroscopicity determination [2] | Weight change rate, Adsorption ([2]; relative humidity 5%) | Weight change rate, Desorption ([2]; relative humidity 5%) | Weight change rate, Adsorption ([2]; relative humidity 20%) | Weight change rate, Desorption ([2]; relative humidity 20%) | Weight change rate, Adsorption ([2]; relative humidity 40%) | Weight change rate, Desorption ([2]; relative humidity 40%) | Weight change rate, Adsorption ([2]; relative humidity 60%) | Weight change rate, Desorption ([2]; relative humidity 60%) | Weight change rate, Adsorption ([2]; relative humidity 80%) | Weight change rate, Desorption ([2]; relative humidity 80%) | Weight change rate, Desorption ([2]; relative humidity 95%) | AUC 0-6 hr increase when the dose was increased from 100 mg/kg to 300 mg/kg ([3]; oral) | Cmax increase when the dose was increased from 100 mg/kg to 300 mg/kg ([3]; oral) | change in the powder X-ray diffraction pattern (Solid stability test) | increase in related substances (Solid stability test) | Weight change rate, Adsorption ([2]; relative humidity 95%) | SMILES | further results
 |  |  |  |  |  |  |  |  |  |  |  |  |  |  |  |  | CS(=O)(=O)CCNCc1ccc(-c2ccc3ncnc(Nc4ccc(OCc5cccc(F)c5)c(Cl)c4)c3c2)o1 [Lapatinib] | effects against brain metastatic cancer (brain metastatic cancer): sufficient effects of these agents could not be obtained; brain penetration properties [1]: limited
almost non-hygroscopic | 0.01% | 0.06% | 0.11% | 0.16% | 0.21% | 0.27% | 0.33% | 0.39% | 0.47% | 0.51% | 0.59% |  |  |  |  |  | C=CC(=O)N1C[C@H](n2c(C#CC3CC3)c(C(=O)N[C@H](C)c3ccccc3)c3c(N)ncnc32)C[C@@H]1C [type V crystal of compound (I) with 1 equivalent of fumaric ] [7-((3R,5S)-1-acryloyl-5-methylpyrrolidin-3-yl)-4-amino-6-(cyclopropylethynyl)-N—((R)-1-phenylethyl)-7H-pyrrolo[2,3-d]pyrimidine-5-carboxamide] | 
almost non-hygroscopic | 0.01% | 0.01% | 0.04% | 0.04% | 0.10% | 0.13% | 0.26% | 0.60% | 0.50% | 0.69% | 0.72% |  |  |  |  |  | C=CC(=O)N1C[C@H](n2c(C#CC3CC3)c(C(=O)N[C@H](C)c3ccccc3)c3c(N)ncnc32)C[C@@H]1C [free-form type I crystal of compound (I), 7-((3R,5S)-1-acryloyl-5-methylpyrrolidin-3-yl)-4-amino-6-(cyclopropylethynyl)-N—((R)-1-phenylethyl)-7H-pyrrolo[2,3-d]pyrimidine-5-carboxamide] | Cmax [3, 4]: 2670 nM; AUC(0-t) [3, 4]: 7.42 µM·h; Tmax ([3]; female, Crl:CD (SD), plasma, po, 100 mg/kg, read-out: Tmax): 0.75 h; AUC(0-t) ([3]; female, Crl:CD (SD), plasma, po, 300 mg/kg): 7.11 µM·h; Cmax [3, 5]: 2250 nM; Tmax [3, 5]: 3.25 h; AUC 0-6 hr increase when the dose was increased from 100 mg/kg to 300 mg/kg [3, 6]: 1.0 times; Cmax increase when the dose was increased from 100 mg/kg to 300 mg/kg [3, 6]: 0.8 times
almost non-hygroscopic | 0.01% | 0.01% | 0.02% | 0.03% | 0.05% | 0.06% | 0.08% | 0.08% | 0.10% | 0.11% | 0.12% | 1.5 times | 1.2 times | no change | almost no increase |  | C=CC(=O)N1C[C@H](n2c(C#CC3CC3)c(C(=O)N[C@H](C)c3ccccc3)c3c(N)ncnc32)C[C@@H]1C [free-form type II crystal of compound (I)] [7-((3R,5S)-1-acryloyl-5-methylpyrrolidin-3-yl)-4-amino-6-(cyclopropylethynyl)-N—((R)-1-phenylethyl)-7H-pyrrolo[2,3-d]pyrimidine-5-carboxamide] | AUC0-6hr ([3]; oral, 100 mg/kg): 5.79 µM·h; Cmax ([3]; oral, 100 mg/kg): 1880 nM; Tmax ([3]; oral, 100 mg/kg): 1.50 h; AUC0-6hr ([3]; oral, 300 mg/kg): 8.53 µM·h; Cmax ([3]; oral, 300 mg/kg): 2250 nM; Tmax ([3]; oral, 300 mg/kg): 3.33 h; Amount of related substances after storage (Solid stability test): 0.12%; Chemical purity after storage (Solid stability test): 99.88%; Amount of related substances before storage (Solid stability test): 0.13%; Chemical purity before storage (Solid stability test): 99.87%
highly hygroscopic | 0.50% | 0.54% | 1.05% | 1.16% | 1.60% | 1.67% | 2.16% | 2.38% | 3.26% | 3.64% | 6.41% |  |  |  |  | 6.41% | C=CC(=O)N1C[C@H](n2c(C#CC3CC3)c(C(=O)N[C@H](C)c3ccccc3)c3c(N)ncnc32)C[C@@H]1C [crystal of compound (I) with 1 equivalent of L-tartaric acid] [7-((3R,5S)-1-acryloyl-5-methylpyrrolidin-3-yl)-4-amino-6-(cyclopropylethynyl)-N—((R)-1-phenylethyl)-7H-pyrrolo[2,3-d]pyrimidine-5-carboxamide] | 
almost non-hygroscopic | 0.01% | 0.04% | 0.11% | 0.13% | 0.18% | 0.20% | 0.27% | 0.30% | 0.34% | 0.34% | 0.38% | 1.9 times | 1.9 times | no change | almost no increase | 0.38% | C=CC(=O)N1C[C@H](n2c(C#CC3CC3)c(C(=O)N[C@H](C)c3ccccc3)c3c(N)ncnc32)C[C@@H]1C [type II crystal of compound (I) with 1 equivalent of fumaric] [7-((3R,5S)-1-acryloyl-5-methylpyrrolidin-3-yl)-4-amino-6-(cyclopropylethynyl)-N—((R)-1-phenylethyl)-7H-pyrrolo[2,3-d]pyrimidine-5-carboxamide] | AUC0-6hr [3, 7]: 6.14 µM·h; Cmax [3, 7]: 2740 nM; Tmax [3, 7]: 1.25 h; AUC0-6 hr relative to the value of the type I crystal of compound (I) with the acid ([3]; oral, 300 mg/kg): 2.4 times; AUC0-6 hr relative to the value of the type II crystal of compound (I) ([3]; oral, 300 mg/kg): 2.4 times; Cmax relative to the value of the type I crystal of compound (I) with the acid ([3]; oral, 300 mg/kg): 1.7 times; Cmax relative to the value of the type II crystal of compound (I) ([3]; oral, 300 mg/kg): 1.4 times; AUC0-6hr [3, 8]: 11.9 µM·h; Cmax [3, 8]: 5340 nM; Tmax [3, 8]: 0.5 h; Amount of related substances after storage (Solid stability test; [9]): 0.15%; Chemical purity after storage (Solid stability test; [9]): 99.85%; Amount of related substances before storage (Solid stability test; [9]): 0.15%; Chemical purity before storage (Solid stability test; [9]): 99.85%
